Measurements published in BindingDB's records for doi:10.1021/jm031106i (Linkoping University, 2004).

Tests used:
Test in all cases: Enzyme Inhibition Measurements
[1] = molecular target: Cathepsin D (Homo sapiens, UniProt P07339)
Method: (§1) Enzyme activities were assayed by monitoring the hydrolysis of substrate in the presence or absence of inhibitor compounds. The hydrolysis was recorded as the increase in fluorescence intensity over a 10 min time period. IC50 values were obtained by assuming competitive inhibition and fitting the dose response data to the equation (Vi/V0) =1/ (1 + [I]/IC50)). The Ki was calculated by using Ki = IC50/ (1 + [S]/Km), and a Km value determined according to Michaelis-Menten.

[2] = molecular target: Plasmepsin I (Plasmodium falciparum, UniProt P39898)
Method: as §1

[3] = molecular target: Plasmepsin II (Plasmodium falciparum (isolate HB3), UniProt P46925); conditions: pH 4.5; 22 °C
Method: as §1

Sequence of Plasmepsin I (P39898 whole entry): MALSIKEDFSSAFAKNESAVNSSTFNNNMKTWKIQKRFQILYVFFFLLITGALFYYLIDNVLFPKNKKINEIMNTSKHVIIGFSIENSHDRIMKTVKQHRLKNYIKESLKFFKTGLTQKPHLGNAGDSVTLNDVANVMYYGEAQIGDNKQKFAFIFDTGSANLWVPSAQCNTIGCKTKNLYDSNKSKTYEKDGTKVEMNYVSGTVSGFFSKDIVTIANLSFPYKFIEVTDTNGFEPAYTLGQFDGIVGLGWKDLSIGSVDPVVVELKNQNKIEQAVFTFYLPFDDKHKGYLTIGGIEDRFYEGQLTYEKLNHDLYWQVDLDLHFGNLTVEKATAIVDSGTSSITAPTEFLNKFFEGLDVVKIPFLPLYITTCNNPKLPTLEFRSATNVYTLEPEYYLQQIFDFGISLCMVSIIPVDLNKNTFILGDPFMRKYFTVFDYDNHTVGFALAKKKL
Sequence of Cathepsin D (P07339 65-162 limits assumed): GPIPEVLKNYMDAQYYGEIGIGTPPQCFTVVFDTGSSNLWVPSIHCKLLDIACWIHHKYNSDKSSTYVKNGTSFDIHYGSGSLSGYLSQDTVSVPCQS
Sequence of Cathepsin D (P07339 169-412 limits assumed): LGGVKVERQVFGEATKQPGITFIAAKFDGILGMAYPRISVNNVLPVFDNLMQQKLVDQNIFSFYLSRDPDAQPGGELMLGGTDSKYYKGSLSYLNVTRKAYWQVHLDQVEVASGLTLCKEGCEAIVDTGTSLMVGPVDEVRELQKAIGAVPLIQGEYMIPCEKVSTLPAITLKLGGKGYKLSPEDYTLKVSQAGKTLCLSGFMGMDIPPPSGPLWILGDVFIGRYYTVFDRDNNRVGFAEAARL
Sequence of Plasmepsin II (P46925 whole entry): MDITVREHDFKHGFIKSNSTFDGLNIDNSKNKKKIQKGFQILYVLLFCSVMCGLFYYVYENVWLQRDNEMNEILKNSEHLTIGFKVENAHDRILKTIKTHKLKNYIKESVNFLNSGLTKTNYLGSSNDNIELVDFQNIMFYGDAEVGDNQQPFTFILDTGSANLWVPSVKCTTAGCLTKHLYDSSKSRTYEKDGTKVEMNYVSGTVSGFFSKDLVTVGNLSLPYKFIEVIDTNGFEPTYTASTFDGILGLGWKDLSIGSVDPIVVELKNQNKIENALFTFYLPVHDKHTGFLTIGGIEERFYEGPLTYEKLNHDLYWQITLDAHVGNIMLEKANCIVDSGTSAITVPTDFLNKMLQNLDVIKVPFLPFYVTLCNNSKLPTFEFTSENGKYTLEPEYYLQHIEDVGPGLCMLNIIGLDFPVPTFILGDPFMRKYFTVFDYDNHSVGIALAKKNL

Ki [1]: 586 nM | Ki [2]: 3.9 nM | Ki [3]: 41 nM
Compound: CC(C)[C@H](NC(=O)c1ccccn1)C(=O)N[C@@H](COCc1ccc(Br)cc1)[C@@H](O)CC(=O)NCC1CCCCC1 [(3S,4S)-5-[(4-bromophenyl)methoxy]-N-(cyclohexylmethyl)-3-hydroxy-4-[(2S)-3-methyl-2-(pyridin-2-ylformamido)butanamido]pentanamide]
